The test system of this experiment is C. elegans VP596 hsp-16.2 GFP/RFP heat-shock reporter. Put plainly: hsp-16.2 heat-shock reporter inhibition in worms, SAR follow-up, counter-screen for SKN-1 inhibitor project, whole organism, C. elegans VP596, GFP/RFP ratio (AID 652155). In general terms: A counterscreen serves to expose hits that act by an unwanted route or on another target.

Activity calls are given as the source filed them.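 The calls were made as follows: active = compounds with mean IC50 of 15 µM or lower in the worm heat shock reporter counterscreen; inactive = the rest.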

For orientation: IC50 means the concentration at which inhibition is half-maximal. For `c1ccc(-c2csc(-c3cccnc3)n2)cc1`, the IC50 is > 64 µM (inactive).

`CCOc1cc(CNC(C)C)cc(Cl)c1OCc1ccc(F)cc1`: the IC50 was > 64 µM (inactive).

Consider `CCOc1cc(CNC2CCCC2)cc(Cl)c1OCc1cccc(F)c1`, for which the IC50 is > 64 µM (inactive).

For `Clc1ccc(-c2csc(-c3cccnc3)n2)cc1`, the IC50 was > 64 µM (inactive).

Take `CCOc1cc(CNC2CCCCC2)cc(Cl)c1OCc1ccc(F)cc1`: the IC50 was > 64 µM (inactive).

As to `CCOc1cc(CNc2ccccc2)cc(Cl)c1OCc1ccc(F)cc1`, the IC50 is > 64 µM (inactive).

On to `COc1ccc(-c2csc(-c3cccnc3)n2)cc1`, for which the IC50 was > 64 µM (inactive).

Consider `CCOc1cc(CNC2CCCC2)cc(Cl)c1OCc1ccc(F)cc1`, for which the IC50 is > 64 µM (inactive).

Regarding `CCOc1cc(CNC2CCCC2)cc(Cl)c1OCc1ccc(Cl)cc1`, the IC50 is > 64 µM (inactive).

Consider `Fc1ccc(-c2csc(-c3cccnc3)n2)cc1`, for which the IC50 is > 64 µM (inactive).

As to `CCOc1cc(CNC2CCCC2)cc(Cl)c1OCc1ccc(OC)cc1`, the IC50 was > 64 µM (inactive).

For `Fc1ccc(COc2ccc(CNC3CCCC3)cc2Cl)cc1`, the IC50 is > 64 µM (inactive).

`COc1cc(CNC2CCCC2)cc(Cl)c1OCc1ccc(F)cc1`: the IC50 is > 64 µM (inactive).

With `c1ccc(-c2csc(-c3ccncc3)n2)cc1`, the IC50 was > 64 µM (inactive).

Take `Cc1ccc(-c2csc(-c3ccncc3)n2)cc1`: the IC50 was > 64 µM (inactive).

In the case of `CCOc1cc(CNC2CCC2)cc(Cl)c1OCc1ccc(F)cc1`, the IC50 is > 64 µM (inactive).

Turning to `CCOc1cc(CNC2CCCC2)cc(Cl)c1OC`, the IC50 was > 64 µM (inactive).

`Fc1ccc(-c2csc(-c3ccncc3)n2)cc1`: the IC50 is > 64 µM (inactive).

In the case of `CCOc1cc(CNC2CCCC2)cc(Cl)c1OCc1ccccc1Cl`, the IC50 was > 64 µM (inactive).

`CCOc1cc(CNC2CCCC2)cc(Cl)c1OCc1ccccc1F`: the IC50 was > 64 µM (inactive).

Regarding `CCOc1cc(C(=O)NC2CCCC2)cc(Cl)c1OCc1ccc(F)cc1`, the IC50 is > 64 µM (inactive).

Take `CCOc1cc(CNC2CCCC2)cc(Cl)c1OCc1ccc(C)cc1`: the IC50 was > 64 µM (inactive).

On to `Cc1ccc(-c2csc(-c3cccnc3)n2)cc1`, for which the IC50 is > 64 µM (inactive).

For the molecule `Clc1ccc(-c2csc(-c3ccncc3)n2)cc1`, the IC50 is > 64 µM (inactive).

As to `CCOc1cc(CNC2CCCC2)ccc1OCc1ccc(F)cc1`, the IC50 is > 64 µM (inactive).

`CCOc1cc(CNCc2ccccc2)cc(Cl)c1OCc1ccc(F)cc1`: the IC50 is > 64 µM (inactive).

In the case of `COc1ccc(-c2csc(-c3ccncc3)n2)cc1`, the IC50 is > 64 µM (inactive).

Take `CCOc1cc(CNC2CC2)cc(Cl)c1OCc1ccc(F)cc1`: the IC50 is > 64 µM (inactive).

Source of the values: PubChem BioAssay AID652155 (Sanford-Burnham Center for Chemical Genomics, 2013).
